According to patent US9212138B2, “Use of derivatives of indoles for the treatment of cancer” (CENTRE NATIONAL DE LA RECHERCHE SCIENTIFIQUE, priority 2009, dated 2015):

Experiments:
[1] = Activity of side products, test not stated; conditions: side product of the synthesis
MKLP-2 (RabK6) = biological target: T1, MKLP-2 (RabK6) (Homo sapiens, UniProt O95235, S2A); experiment: biochemical
T1 construct: Expression clones for MKLP-21-519 (coding for residues 1 to 519) were obtained as follows; His-tag; made in house; host or cells: E. coli BL21(DE3)
T1 sequence (O95235 1-519 S2A limits assumed): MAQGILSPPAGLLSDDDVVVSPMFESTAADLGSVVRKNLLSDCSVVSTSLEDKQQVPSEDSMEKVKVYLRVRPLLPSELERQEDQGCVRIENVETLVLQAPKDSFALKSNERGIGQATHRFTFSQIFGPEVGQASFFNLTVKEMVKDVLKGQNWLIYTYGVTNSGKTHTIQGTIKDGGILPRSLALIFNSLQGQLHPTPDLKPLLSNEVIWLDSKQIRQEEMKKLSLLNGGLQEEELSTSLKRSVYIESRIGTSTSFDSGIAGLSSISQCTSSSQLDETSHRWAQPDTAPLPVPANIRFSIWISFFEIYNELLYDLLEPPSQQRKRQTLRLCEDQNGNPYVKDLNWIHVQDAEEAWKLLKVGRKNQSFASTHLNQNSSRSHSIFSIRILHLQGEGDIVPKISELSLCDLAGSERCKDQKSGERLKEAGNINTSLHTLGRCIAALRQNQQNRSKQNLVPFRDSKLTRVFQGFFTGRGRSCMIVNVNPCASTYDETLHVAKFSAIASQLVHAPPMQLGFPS
Description: All experiments were performed at room temperature using a 96-well Sunrise photometer (Tecan, Maennedorf, Switzerland) at a final volume of 100 μl per well.
Steady-state ATPase rates were measured using the pyruvate kinase/lactate dehydrogenase-linked assay in buffer A25A (25 mM potassium ACES, pH 6.9, 2 mM MgAc2, 2 mM Na-EGTA, 0.1 mM Na-EDTA, 1 mM β-mercaptoethanol) supplemented with 1 mM MgATP; 2 mM PEP; 0.25 mM NADH; 3-10 μg/ml pyruvate kinase; 3 μg/ml lactate dehydrogenase and 8 μM taxol.
The data were analyzed using Kaleidagraph 3.0 (Synergy Software, Reading, Pa.) and Microsoft Excel to obtain the kinetic variables.
When necessary, the inhibitor concentrations were adapted depending on the initial IC50 value. Experiments were performed in triplicate and averaged data points are shown with error bars±SD.

Structure (SMILES)	activity [1]	IC50 (MKLP-2 (RabK6)) [µM]
NC(=O)/C(=C/c1cccnc1)c1c[nH]c2ccccc12	no activity	–
CCOc1ccncc1/C=C(\C#N)c1c[nH]c2ccc(OC)cc12 [Example 47b]	no activity	–
COc1ccc2[nH]cc(/C(C#N)=C/c3cccnc3F)c2c1 [Example 48, (Z)-3-(2-fluoropyridin-3-yl)-2-(5-methoxy-1H-indol-3-yl)-acrylonitrile]	–	< 5
COc1ccc2[nH]cc(/C(C#N)=C/c3ccc(Cl)nc3)c2c1 [Example 49, (Z)-3-(6-chloropyridin-3-yl)-2-(5-methoxy-1H-indol-3-yl)-acrylonitrile]	–	5 to 10
COc1ccc2[nH]cc(/C(C#N)=C/c3ccsc3)c2c1 [Example 50, (Z)-2-(5-methoxy-1H-indol-3-yl)-3-thiophen-3-yl-acrylonitrile]	–	> 50
COc1ccc2[nH]cc(/C(C#N)=C/c3cnn(C)c3)c2c1 [Example 51]	–	> 50
COc1ccc2[nH]cc(/C(C#N)=C/c3ccc(OC)nc3)c2c1 [Example 52, (Z)-3-(6-methoxy-pyridin-3-yl)-2-(5-methoxy-1H-indol-3-yl)-acrylonitrile]	–	10 to 20
COc1ccc2[nH]cc(/C(C#N)=C/c3ccc(C)nc3)c2c1 [Example 53, (Z)-2-(5-methoxy-1H-indol-3-yl)-3-(6-methylpyridin-3-yl)-acrylonitrile]	–	< 5
COc1ccc2[nH]cc(/C(C#N)=C/c3ccc(C#N)nc3)c2c1 [Example 54, (Z)-5-[2-cyano-2-(5-methoxy-1H-indol-3-yl)-vinyl]-picolinonitrile]	–	5 to 10
N#C/C(=C\c1cccc(C#N)c1)c1c[nH]c2ccc(O)cc12 [Example 55, (Z)-3-[2-cyano-2-(5-hydroxy-1H-indol-3-yl)-vinyl]-benzonitrile]	–	< 5
NC(=O)/C(=C\c1cccnc1)c1c[nH]c2ccccc12 [Example 56, (Z)-2-(1H-indol-3-yl)-3-pyridin-3-yl-acrylamide]	–	> 50
C#C/C(=C\c1cccnc1)c1c[nH]c2ccc(OC)cc12 [Example 58, (E)-5-methoxy-3-(1-(pyridin-3-yl)but-1-en-3-yn-2-yl)-1H-indole]	–	5 to 10
COc1ccc2[nH]cc(/C(C#N)=C(\C)c3cccnc3)c2c1 [Example 60, (Z)-2-(5-methoxy-1H-indol-3-yl)-3-(pyridin-3-yl)-but-2-enenitrile]	–	< 5
N#C/C(=N\c1cccnc1)c1c[nH]c2ccccc12 [Example 61, (Z)-(1H-indol-3-yl)-(pyridin-3-ylimino)-acetonitrile]	–	< 5
